Values of other authors as cited in US20210395200A1, “SYNTHETIC PROCESSES FOR THE PRODUCTION OF 1-((3S,4R)-4-(2,6-DIFLUORO-4-METHOXYPHENYL)-2-OXOPYRROLIDIN-3-YL)-3-PHENYLUREA” (BRISTOL-MYERS SQUIBB COMPANY, priority 2018, published 2021).

Target: T1, FPR2 (Homo sapiens, UniProt P25090)
T1 sequence (P25090 1-351): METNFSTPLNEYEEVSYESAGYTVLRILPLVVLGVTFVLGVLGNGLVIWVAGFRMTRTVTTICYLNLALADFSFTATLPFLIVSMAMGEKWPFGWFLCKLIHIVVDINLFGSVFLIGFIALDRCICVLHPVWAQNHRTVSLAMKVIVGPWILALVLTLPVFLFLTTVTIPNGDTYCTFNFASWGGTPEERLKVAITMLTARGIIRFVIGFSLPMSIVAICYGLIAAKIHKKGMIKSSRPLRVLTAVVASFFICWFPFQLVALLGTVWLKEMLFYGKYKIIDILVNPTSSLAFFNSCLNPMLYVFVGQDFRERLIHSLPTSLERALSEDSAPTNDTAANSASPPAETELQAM
Details: background statement referring to U.S. Pat. No. 9,822,069

FPR2 agonist activity: robust FPR2 agonist activity
Structure (SMILES): COc1cc(F)c([C@@H]2CNC(=O)[C@H]2NC(=O)Nc2ccccc2)c(F)c1 [Compound 1, 1-((3S,4R)-4-(2,6-difluoro-4-methoxyphenyl)-2-oxopyrrolidin-3-yl)-3-phenylurea]
